Data reported in ChEMBL document CHEMBL1811859, “Second-generation sulfonamide inhibitors of D-glutamic acid-adding enzyme: activity optimisation with conformationally rigid analogues of D-glutamic acid” (Eur J Med Chem, 2011).
In brackets after ≈: the same amount, converted by molar mass.

Columns and labels:
Streptococcus pneumoniae [1] = assay: Antimicrobial activity against Streptococcus pneumoniae D39 by broth dilution method; type: functional
Streptococcus pneumoniae [2] = assay: Antimicrobial activity against Streptococcus pneumoniae ATCC 33400 by broth dilution method; type: functional
Streptococcus pneumoniae [3] = assay: Antimicrobial activity against Streptococcus pneumoniae ATCC 49619 by broth dilution method; type: functional
Enterococcus hirae = assay: Antimicrobial activity against Enterococcus hirae ATCC 9790 by broth dilution method; type: functional
Enterococcus faecium = assay: Antimicrobial activity against Enterococcus faecium ATCC 19434 by broth dilution method; type: functional
Enterococcus faecalis [4] = assay: Antimicrobial activity against Enterococcus faecalis ATCC 29212 by broth dilution method; type: functional
Enterococcus faecalis [5] = assay: Antimicrobial activity against Enterococcus faecalis ATCC 19433 by broth dilution method; type: functional
Bacillus subtilis = assay: Antimicrobial activity against Bacillus subtilis ATCC 6633 by broth dilution method; type: functional
Listeria monocytogenes = assay: Antimicrobial activity against Listeria monocytogenes ATCC 14780 by broth dilution method; type: functional
Listeria innocua = assay: Antimicrobial activity against Listeria innocua ATCC 33090 by broth dilution method; type: functional
Micrococcus luteus = assay: Antimicrobial activity against Micrococcus luteus ATCC 9314 by broth dilution method; type: functional
Klebsiella pneumoniae = assay: Antimicrobial activity against Klebsiella pneumoniae ATCC 13883 by broth dilution method; type: functional
Pseudomonas aeruginosa = assay: Antimicrobial activity against Pseudomonas aeruginosa ATCC 27853 by broth dilution method; type: functional
Citrobacter freundii = assay: Antimicrobial activity against Citrobacter freundii ATCC 8090 by broth dilution method; type: functional
Proteus mirabilis = assay: Antimicrobial activity against Proteus mirabilis ATCC 29936 by broth dilution method; type: functional
Escherichia coli [6] = assay: Antimicrobial activity against Escherichia coli ATCC 8739 by broth dilution method; type: functional
Escherichia coli [7] = assay: Inhibition of Escherichia coli MurD ligase assessed as residual activity at 1 mM after 30 mins
[8] = tested on: Staphylococcus epidermidis; assay: Antimicrobial activity against Staphylococcus epidermidis ATCC 12228 by broth dilution method; type: functional
Staphylococcus aureus [9] = assay: Antimicrobial activity against Staphylococcus aureus ATCC 25923 by broth dilution method; type: functional
Staphylococcus aureus [10] = assay: Antimicrobial activity against methicillin-resistant Staphylococcus aureus PL1 by broth dilution method; type: functional
Staphylococcus aureus [11] = assay: Antimicrobial activity against methicillin-resistant Staphylococcus aureus ATCC 43300 by broth dilution method; type: functional
Escherichia coli [12] = assay: Inhibition of Escherichia coli MurD ligase assessed as residual activity at 500 uM after 30 mins
[13] = Inhibition of Escherichia coli MurD ligase assessed as addition of D-[3H]glu to UDP-N-acetyl-muramoyl-L-alanine after 30 mins

With `N#Cc1ccc(COc2ccc3cc(S(=O)(=O)NC4CCC(C(=O)O)CC4C(=O)O)ccc3c2)c(F)c1` (racemic) the MIC (Streptococcus pneumoniae [1]) was greater than 512 µg/mL, the MIC (Streptococcus pneumoniae [2]) was greater than 512 µg/mL and the MIC (Streptococcus pneumoniae [3]) was greater than 512 µg/mL. It also gave an MIC (Enterococcus hirae) greater than 512 µg/mL, an MIC (Enterococcus faecium) greater than 512 µg/mL and an MIC (Enterococcus faecalis [4]) greater than 512 µg/mL. For the same compound, the MIC (Enterococcus faecalis [5]) was greater than 512 µg/mL, the MIC (Bacillus subtilis) was greater than 512 µg/mL and the MIC (Listeria monocytogenes) was greater than 512 µg/mL. It also gave an MIC (Listeria innocua) greater than 512 µg/mL, an MIC (Micrococcus luteus) greater than 512 µg/mL and an MIC (Klebsiella pneumoniae) greater than 512 µg/mL. For the same compound, the MIC (Pseudomonas aeruginosa) was greater than 512 µg/mL, the MIC (Citrobacter freundii) was greater than 512 µg/mL and the MIC (Proteus mirabilis) was greater than 512 µg/mL. The MIC (Escherichia coli [6]) was greater than 512 µg/mL, the Activity (Escherichia coli [7]) was 14% and the MIC [8] was greater than 512 µg/mL. For the same compound, the MIC (Staphylococcus aureus [9]) was greater than 512 µg/mL, the MIC (Staphylococcus aureus [10]) was greater than 512 µg/mL and the MIC (Staphylococcus aureus [11]) was greater than 512 µg/mL.
In the case of `CCCCOc1ccc2cc(S(=O)(=O)N3CCC(C(=O)O)CC3)ccc2c1`, the Activity (Escherichia coli [12]) is reported as 97%.
Work on `CCCCOc1ccc2cc(S(=O)(=O)N[C@H](CCC(=O)O)C(=O)O)ccc2c1` yielded an IC50 [13] of 280 µM and a Ki [13] of 192 µM.
`N#Cc1ccc(COc2ccc3cc(S(=O)(=O)Nc4cc(C(=O)O)ccc4C(=O)O)ccc3c2)c(F)c1` gave an MIC (Streptococcus pneumoniae [1]) greater than 512 µg/mL, an MIC (Streptococcus pneumoniae [2]) greater than 512 µg/mL and an MIC (Streptococcus pneumoniae [3]) greater than 512 µg/mL. For the same compound, the MIC (Enterococcus hirae) was greater than 512 µg/mL, the MIC (Enterococcus faecium) was greater than 512 µg/mL and the MIC (Enterococcus faecalis [4]) was greater than 512 µg/mL. For the same compound, the MIC (Enterococcus faecalis [5]) was greater than 512 µg/mL, the MIC (Bacillus subtilis) was greater than 512 µg/mL and the MIC (Listeria monocytogenes) was greater than 512 µg/mL. For the same compound, the MIC (Listeria innocua) was greater than 512 µg/mL, the MIC (Micrococcus luteus) was greater than 512 µg/mL and the MIC (Klebsiella pneumoniae) was greater than 512 µg/mL. The MIC (Pseudomonas aeruginosa) was greater than 512 µg/mL, the MIC (Citrobacter freundii) was greater than 512 µg/mL and the MIC (Proteus mirabilis) was greater than 512 µg/mL. It also gave an MIC (Escherichia coli [6]) greater than 512 µg/mL, an Activity (Escherichia coli [7]) of 2% and an IC50 [13] of 38 µM. For the same compound, the Ki [13] was 26 µM, the MIC [8] was greater than 512 µg/mL and the MIC (Staphylococcus aureus [9]) was greater than 512 µg/mL. It also gave an MIC (Staphylococcus aureus [10]) greater than 512 µg/mL and an MIC (Staphylococcus aureus [11]) greater than 512 µg/mL.
Compound `N#Cc1ccc(COc2ccc3cc(S(=O)(=O)N[C@H]4CCCC[C@H]4C(=O)O)ccc3c2)c(F)c1` has an MIC (Streptococcus pneumoniae [1]) greater than 512 µg/mL, an MIC (Streptococcus pneumoniae [2]) greater than 512 µg/mL and an MIC (Streptococcus pneumoniae [3]) greater than 512 µg/mL. The MIC (Enterococcus hirae) was greater than 512 µg/mL, the MIC (Enterococcus faecium) was 256 µg/mL (≈ 531 µM) and the MIC (Enterococcus faecalis [4]) was greater than 512 µg/mL. The MIC (Enterococcus faecalis [5]) was greater than 512 µg/mL, the MIC (Bacillus subtilis) was greater than 512 µg/mL and the MIC (Listeria monocytogenes) was greater than 512 µg/mL. For the same compound, the MIC (Listeria innocua) was greater than 512 µg/mL, the MIC (Micrococcus luteus) was greater than 512 µg/mL and the MIC (Klebsiella pneumoniae) was greater than 512 µg/mL. The MIC (Pseudomonas aeruginosa) was greater than 512 µg/mL, the MIC (Citrobacter freundii) was greater than 512 µg/mL and the MIC (Proteus mirabilis) was greater than 512 µg/mL. It also gave an MIC (Escherichia coli [6]) greater than 512 µg/mL, an Activity (Escherichia coli [7]) of 45% and an MIC [8] of 256 µg/mL (≈ 531 µM). The MIC (Staphylococcus aureus [9]) was 256 µg/mL (≈ 531 µM), the MIC (Staphylococcus aureus [10]) was 256 µg/mL (≈ 531 µM) and the MIC (Staphylococcus aureus [11]) was 256 µg/mL (≈ 531 µM).
In the case of `N#Cc1ccc(COc2ccc3cc(S(=O)(=O)N[C@H](CCC(=O)O)C(=O)O)ccc3c2)c(F)c1`, the Ki [13] is reported as 58 µM.
Work on `CCCCOc1ccc2cc(S(=O)(=O)NC3CCC(C(=O)O)CC3C(=O)O)ccc2c1` (racemic) yielded an MIC (Streptococcus pneumoniae [1]) of 64 µg/mL (≈ 142 µM), an MIC (Streptococcus pneumoniae [2]) of 64 µg/mL (≈ 142 µM) and an MIC (Streptococcus pneumoniae [3]) of 64 µg/mL (≈ 142 µM). It also gave an MIC (Enterococcus hirae) of 32 µg/mL (≈ 71.2 µM), an MIC (Enterococcus faecium) of 128 µg/mL (≈ 285 µM) and an MIC (Enterococcus faecalis [4]) of 256 µg/mL (≈ 569 µM). For the same compound, the MIC (Enterococcus faecalis [5]) was 128 µg/mL (≈ 285 µM), the MIC (Bacillus subtilis) was 64 µg/mL (≈ 142 µM) and the MIC (Listeria monocytogenes) was 32 µg/mL (≈ 71.2 µM). It also gave an MIC (Listeria innocua) of 32 µg/mL (≈ 71.2 µM), an MIC (Micrococcus luteus) greater than 512 µg/mL and an MIC (Klebsiella pneumoniae) greater than 512 µg/mL. The MIC (Pseudomonas aeruginosa) was greater than 512 µg/mL, the MIC (Citrobacter freundii) was greater than 512 µg/mL and the MIC (Proteus mirabilis) was greater than 512 µg/mL. The MIC (Escherichia coli [6]) was greater than 512 µg/mL, the Activity (Escherichia coli [7]) was 89% and the MIC [8] was 128 µg/mL (≈ 285 µM). The MIC (Staphylococcus aureus [9]) was 128 µg/mL (≈ 285 µM), the MIC (Staphylococcus aureus [10]) was 32 µg/mL (≈ 71.2 µM) and the MIC (Staphylococcus aureus [11]) was 128 µg/mL (≈ 285 µM).
For `N#Cc1ccc(COc2ccc3cc(S(=O)(=O)N[C@@H]4CCCC[C@H]4C(=O)O)ccc3c2)c(F)c1`, the MIC (Streptococcus pneumoniae [1]) was greater than 512 µg/mL, the MIC (Streptococcus pneumoniae [2]) was greater than 512 µg/mL and the MIC (Streptococcus pneumoniae [3]) was greater than 512 µg/mL. For the same compound, the MIC (Enterococcus hirae) was greater than 512 µg/mL, the MIC (Enterococcus faecium) was greater than 512 µg/mL and the MIC (Enterococcus faecalis [4]) was greater than 512 µg/mL. For the same compound, the MIC (Enterococcus faecalis [5]) was greater than 512 µg/mL, the MIC (Bacillus subtilis) was greater than 512 µg/mL and the MIC (Listeria monocytogenes) was greater than 512 µg/mL. For the same compound, the MIC (Listeria innocua) was greater than 512 µg/mL, the MIC (Micrococcus luteus) was greater than 512 µg/mL and the MIC (Klebsiella pneumoniae) was greater than 512 µg/mL. For the same compound, the MIC (Pseudomonas aeruginosa) was greater than 512 µg/mL, the MIC (Citrobacter freundii) was greater than 512 µg/mL and the MIC (Proteus mirabilis) was greater than 512 µg/mL. The MIC (Escherichia coli [6]) was greater than 512 µg/mL, the Activity (Escherichia coli [7]) was 88% and the MIC [8] was greater than 512 µg/mL. It also gave an MIC (Staphylococcus aureus [9]) greater than 512 µg/mL, an MIC (Staphylococcus aureus [10]) greater than 512 µg/mL and an MIC (Staphylococcus aureus [11]) greater than 512 µg/mL.
`CCCCOc1ccc2cc(S(=O)(=O)N[C@@H]3CCCC[C@H]3C(=O)O)ccc2c1` showed an MIC (Streptococcus pneumoniae [1]) of 64 µg/mL (≈ 158 µM), an MIC (Streptococcus pneumoniae [2]) of 64 µg/mL (≈ 158 µM) and an MIC (Streptococcus pneumoniae [3]) of 64 µg/mL (≈ 158 µM). It also gave an MIC (Enterococcus hirae) of 64 µg/mL (≈ 158 µM), an MIC (Enterococcus faecium) of 256 µg/mL (≈ 631 µM) and an MIC (Enterococcus faecalis [4]) of 256 µg/mL (≈ 631 µM). It also gave an MIC (Enterococcus faecalis [5]) of 512 µg/mL (≈ 1260 µM), an MIC (Bacillus subtilis) of 64 µg/mL (≈ 158 µM) and an MIC (Listeria monocytogenes) of 32 µg/mL (≈ 78.9 µM). For the same compound, the MIC (Listeria innocua) was 32 µg/mL (≈ 78.9 µM), the MIC (Micrococcus luteus) was greater than 512 µg/mL and the MIC (Klebsiella pneumoniae) was greater than 512 µg/mL. It also gave an MIC (Pseudomonas aeruginosa) greater than 512 µg/mL, an MIC (Citrobacter freundii) greater than 512 µg/mL and an MIC (Proteus mirabilis) greater than 512 µg/mL. It also gave an MIC (Escherichia coli [6]) greater than 512 µg/mL, an Activity (Escherichia coli [7]) of 100% and an MIC [8] of 256 µg/mL (≈ 631 µM). For the same compound, the MIC (Staphylococcus aureus [9]) was 256 µg/mL (≈ 631 µM), the MIC (Staphylococcus aureus [10]) was 256 µg/mL (≈ 631 µM) and the MIC (Staphylococcus aureus [11]) was 256 µg/mL (≈ 631 µM).
